Results reported in paper PMC2952445 (The journal of pain : official journal of the American Pain …, 2009).

Biological target: mu opioid peptide (MOP) receptor (mouse brain) (Mus musculus, UniProt P42866)
Sequence (P42866 whole entry): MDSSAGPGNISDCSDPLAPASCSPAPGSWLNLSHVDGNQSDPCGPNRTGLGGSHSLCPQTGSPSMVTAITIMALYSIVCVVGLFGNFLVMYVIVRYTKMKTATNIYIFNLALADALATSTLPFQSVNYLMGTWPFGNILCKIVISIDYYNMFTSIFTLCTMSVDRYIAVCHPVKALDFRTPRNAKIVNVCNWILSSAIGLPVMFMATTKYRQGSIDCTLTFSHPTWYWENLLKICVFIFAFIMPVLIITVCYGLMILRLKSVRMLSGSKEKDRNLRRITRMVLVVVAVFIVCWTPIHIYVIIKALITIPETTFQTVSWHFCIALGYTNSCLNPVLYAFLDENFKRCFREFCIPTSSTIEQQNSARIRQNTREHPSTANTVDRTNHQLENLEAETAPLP

## CCC(=O)C(CC(C)N(C)C)(c1ccccc1)c1ccccc1 (stereo not shown) [methadone]
  IC50: 11.7 ± 1.2 nM
